Experimental data published in patent publication US10182981B2, “Method of regulating a skin condition” (priority 2015, dated 2019).

System: IL-18
Experiment: Evaluation of skin sensitization potential (IL-18 production in HEK)
Type: cell-based, human
Settings: HEK lysate, 16 h
Text: It is possible for a material to not be cytotoxic, and yet be unsafe due to provoking an allergic reaction upon skin contact. Typically, initial exposure to an allergen sensitizes the immune system, and following exposures cause an allergic response. Recent progress in understanding the mechanisms of skin sensitization identified interleukin-18 (IL-18) production in normal human epidermal keratinocytes (HEK) as a useful biomarker for skin contact sensitization (Corsini, et al., “Use of IL-18 Production In a Human Keratinocyte Cell Line to Discriminate Contact Sensitizers from Irritants and Low Molecular Weight Respiratory Allergens.” Toxicol In Vitro. 2009 August; 23(5):789-96; Teunis, et al., “Transfer of a Two-tiered Keratinocyte Assay: IL-18 Production by NCTC2544 to Determine the Skin Sensitizing Capacity and Epidermal Equivalent Assay to Determine Sensitizer Potency.” Toxicol In Vitro. 2013 April; 27(3):1135-50). […] Thus, IL-18 production in HEK was evaluated to determine sensitization potential.
Normal human adult epidermal keratinocytes (HEK) were cultured as described above for the cytoxicity evaluation. […] The cell lysates were collected, and IL-18 was quantified using Human IL-18 ELISA Kit (Catalog #7620, produced by MBL International Co., Woburn, Mass., USA). […] Fold changes of IL-18 levels between test articles and respective vehicle controls were calculated and compared to pPD. […]

Nc1ccc(N)cc1 [benchmark sensitizer, para-phenylenediamine]
IL18 Maximum fold change vs vehicle control: 7.8 fold)
IL18 Maximum fold change vs vehicle control (listed as para-phenylenediamine (pPD)): significantly induced IL-18
